What was measured:
[1] = molecular target: SRSF protein kinase 3 (Homo sapiens) (UniProt Q9UPE1); test: Inhibition of human STK23 at 18.6 nM by HotSpot assay relative to control
[2] = molecular target: T1, Serine/threonine-protein kinase Sgk3 (Homo sapiens) (UniProt Q96BR1); test: Inhibition of human SGKL at 18.6 nM by HotSpot assay relative to control
T1 sequence (whole entry): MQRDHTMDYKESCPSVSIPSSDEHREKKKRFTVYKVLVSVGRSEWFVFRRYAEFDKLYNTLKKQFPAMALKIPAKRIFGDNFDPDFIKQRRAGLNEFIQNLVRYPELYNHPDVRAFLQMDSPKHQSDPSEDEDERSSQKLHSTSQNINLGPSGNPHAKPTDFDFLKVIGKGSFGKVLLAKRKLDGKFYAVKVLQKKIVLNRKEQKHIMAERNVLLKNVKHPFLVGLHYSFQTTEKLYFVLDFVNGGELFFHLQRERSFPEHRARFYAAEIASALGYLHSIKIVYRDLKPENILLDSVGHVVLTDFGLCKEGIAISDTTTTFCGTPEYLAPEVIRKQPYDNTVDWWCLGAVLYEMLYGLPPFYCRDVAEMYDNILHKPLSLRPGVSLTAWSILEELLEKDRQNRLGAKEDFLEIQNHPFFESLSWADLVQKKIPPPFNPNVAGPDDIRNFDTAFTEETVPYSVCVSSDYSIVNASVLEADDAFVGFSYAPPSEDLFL

[3] = molecular target: T2, Serine/threonine-protein kinase VRK1 (Homo sapiens) (UniProt Q99986); test: Inhibition of human VRK1 at 18.6 nM by HotSpot assay relative to control
T2 sequence (whole entry): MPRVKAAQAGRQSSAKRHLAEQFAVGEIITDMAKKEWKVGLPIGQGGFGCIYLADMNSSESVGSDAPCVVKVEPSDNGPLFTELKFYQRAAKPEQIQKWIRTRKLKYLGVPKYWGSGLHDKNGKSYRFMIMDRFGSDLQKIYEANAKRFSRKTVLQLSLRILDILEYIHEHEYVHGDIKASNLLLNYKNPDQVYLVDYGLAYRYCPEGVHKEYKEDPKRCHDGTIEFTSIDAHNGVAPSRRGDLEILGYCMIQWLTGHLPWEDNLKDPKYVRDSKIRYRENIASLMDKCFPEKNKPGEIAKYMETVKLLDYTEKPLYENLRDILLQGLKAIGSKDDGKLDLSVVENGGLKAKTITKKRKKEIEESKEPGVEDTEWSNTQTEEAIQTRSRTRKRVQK

[4] = molecular target: T3, Megakaryocyte-associated tyrosine-protein kinase (Homo sapiens) (UniProt P42679); test: Inhibition of human CTK at 1.82 nM by HotSpot assay relative to control
T3 sequence (whole entry): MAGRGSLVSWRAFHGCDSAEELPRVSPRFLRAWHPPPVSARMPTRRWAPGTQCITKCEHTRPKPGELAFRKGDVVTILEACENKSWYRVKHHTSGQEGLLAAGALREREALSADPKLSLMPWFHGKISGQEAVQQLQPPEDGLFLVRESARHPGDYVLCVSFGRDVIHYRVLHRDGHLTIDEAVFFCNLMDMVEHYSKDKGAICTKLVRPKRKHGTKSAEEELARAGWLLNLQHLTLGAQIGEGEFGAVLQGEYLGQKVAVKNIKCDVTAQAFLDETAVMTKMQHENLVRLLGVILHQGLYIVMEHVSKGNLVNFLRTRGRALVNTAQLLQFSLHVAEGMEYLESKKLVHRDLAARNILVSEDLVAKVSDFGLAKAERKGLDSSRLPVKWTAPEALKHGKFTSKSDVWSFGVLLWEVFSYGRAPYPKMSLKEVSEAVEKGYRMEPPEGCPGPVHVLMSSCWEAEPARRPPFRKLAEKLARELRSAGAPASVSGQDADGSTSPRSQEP

[5] = molecular target: T4, Serine/threonine-protein kinase NLK (Homo sapiens) (UniProt Q9UBE8); test: Inhibition of human NLK at 1.82 nM by HotSpot assay relative to control
T4 sequence (whole entry): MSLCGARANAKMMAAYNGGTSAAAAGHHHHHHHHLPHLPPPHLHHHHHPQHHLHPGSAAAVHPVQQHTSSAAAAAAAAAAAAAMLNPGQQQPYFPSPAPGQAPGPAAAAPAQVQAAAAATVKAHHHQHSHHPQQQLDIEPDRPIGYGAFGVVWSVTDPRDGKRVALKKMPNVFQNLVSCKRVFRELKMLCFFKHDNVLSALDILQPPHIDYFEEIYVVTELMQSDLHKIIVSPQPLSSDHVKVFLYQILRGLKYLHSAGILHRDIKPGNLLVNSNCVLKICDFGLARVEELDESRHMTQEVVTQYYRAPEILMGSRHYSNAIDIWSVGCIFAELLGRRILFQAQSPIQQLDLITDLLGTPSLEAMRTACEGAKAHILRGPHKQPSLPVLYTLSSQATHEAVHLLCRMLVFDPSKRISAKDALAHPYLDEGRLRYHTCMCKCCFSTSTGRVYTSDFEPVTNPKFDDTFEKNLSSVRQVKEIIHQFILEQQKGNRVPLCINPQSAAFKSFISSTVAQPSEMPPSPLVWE

[6] = molecular target: Serine/threonine-protein kinase PAK 2 (Homo sapiens) (UniProt Q13177); test: Inhibition of human PAK2 at 1.82 nM by HotSpot assay relative to control
Serine/threonine-protein kinase PAK 2 (Homo sapiens), sequence (Q13177 whole entry): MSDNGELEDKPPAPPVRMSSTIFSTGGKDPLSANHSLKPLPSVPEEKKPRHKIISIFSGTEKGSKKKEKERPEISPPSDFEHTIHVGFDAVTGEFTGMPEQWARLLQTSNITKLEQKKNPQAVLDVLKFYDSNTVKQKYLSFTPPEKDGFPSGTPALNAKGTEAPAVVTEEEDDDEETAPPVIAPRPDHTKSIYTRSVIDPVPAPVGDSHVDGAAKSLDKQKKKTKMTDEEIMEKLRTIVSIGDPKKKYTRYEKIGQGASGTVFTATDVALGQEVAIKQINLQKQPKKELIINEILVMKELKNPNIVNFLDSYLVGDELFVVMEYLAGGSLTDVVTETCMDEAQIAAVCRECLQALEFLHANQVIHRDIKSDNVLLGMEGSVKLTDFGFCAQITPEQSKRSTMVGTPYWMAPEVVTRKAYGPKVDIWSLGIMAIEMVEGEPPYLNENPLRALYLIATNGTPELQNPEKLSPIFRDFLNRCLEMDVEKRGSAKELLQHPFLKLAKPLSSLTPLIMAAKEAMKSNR

[7] = molecular target: T5, cGMP-dependent protein kinase 1 (Homo sapiens) (UniProt Q13976); test: Inhibition of human PKG1b at 1.82 nM by HotSpot assay relative to control
T5 sequence (whole entry): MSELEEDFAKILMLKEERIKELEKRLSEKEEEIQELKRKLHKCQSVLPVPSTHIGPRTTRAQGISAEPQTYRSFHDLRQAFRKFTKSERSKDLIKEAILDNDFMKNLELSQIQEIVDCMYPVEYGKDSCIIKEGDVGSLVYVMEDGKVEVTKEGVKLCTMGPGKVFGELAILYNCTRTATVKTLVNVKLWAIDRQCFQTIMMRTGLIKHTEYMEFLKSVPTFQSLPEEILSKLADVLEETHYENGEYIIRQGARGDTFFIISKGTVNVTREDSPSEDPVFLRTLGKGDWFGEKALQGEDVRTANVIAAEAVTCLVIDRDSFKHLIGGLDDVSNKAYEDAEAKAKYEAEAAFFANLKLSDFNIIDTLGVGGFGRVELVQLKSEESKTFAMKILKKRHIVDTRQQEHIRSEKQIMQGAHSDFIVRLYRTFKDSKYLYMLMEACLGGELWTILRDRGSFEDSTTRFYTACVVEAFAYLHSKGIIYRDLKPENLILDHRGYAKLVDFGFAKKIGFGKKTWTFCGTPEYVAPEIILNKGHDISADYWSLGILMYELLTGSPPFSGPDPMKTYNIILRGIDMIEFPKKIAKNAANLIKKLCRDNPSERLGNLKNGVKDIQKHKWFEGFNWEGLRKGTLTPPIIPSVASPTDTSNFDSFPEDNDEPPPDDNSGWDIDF

[8] = molecular target: Tyrosine-protein kinase Yes (Homo sapiens) (UniProt P07947); test: Inhibition of human YES1 at 1.82 nM by HotSpot assay relative to control
Tyrosine-protein kinase Yes (Homo sapiens), sequence (P07947 2-543 limits assumed): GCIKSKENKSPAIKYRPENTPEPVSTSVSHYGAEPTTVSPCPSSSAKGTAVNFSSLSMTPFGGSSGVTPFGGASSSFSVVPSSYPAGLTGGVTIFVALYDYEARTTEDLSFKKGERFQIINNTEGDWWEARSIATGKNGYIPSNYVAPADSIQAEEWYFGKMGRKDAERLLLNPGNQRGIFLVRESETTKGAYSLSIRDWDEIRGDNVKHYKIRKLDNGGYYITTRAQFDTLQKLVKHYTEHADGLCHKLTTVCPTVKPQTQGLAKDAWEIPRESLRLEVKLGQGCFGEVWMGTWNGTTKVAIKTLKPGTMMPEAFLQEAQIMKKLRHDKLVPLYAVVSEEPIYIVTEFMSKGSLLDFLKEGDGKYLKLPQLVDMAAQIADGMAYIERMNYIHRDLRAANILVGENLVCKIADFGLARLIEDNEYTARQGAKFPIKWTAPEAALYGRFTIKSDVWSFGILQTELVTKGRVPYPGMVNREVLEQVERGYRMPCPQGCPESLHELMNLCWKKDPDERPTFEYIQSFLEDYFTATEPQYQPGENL

SRSF protein kinase 3 (Homo sapiens), sequence (Q9UPE1 whole entry): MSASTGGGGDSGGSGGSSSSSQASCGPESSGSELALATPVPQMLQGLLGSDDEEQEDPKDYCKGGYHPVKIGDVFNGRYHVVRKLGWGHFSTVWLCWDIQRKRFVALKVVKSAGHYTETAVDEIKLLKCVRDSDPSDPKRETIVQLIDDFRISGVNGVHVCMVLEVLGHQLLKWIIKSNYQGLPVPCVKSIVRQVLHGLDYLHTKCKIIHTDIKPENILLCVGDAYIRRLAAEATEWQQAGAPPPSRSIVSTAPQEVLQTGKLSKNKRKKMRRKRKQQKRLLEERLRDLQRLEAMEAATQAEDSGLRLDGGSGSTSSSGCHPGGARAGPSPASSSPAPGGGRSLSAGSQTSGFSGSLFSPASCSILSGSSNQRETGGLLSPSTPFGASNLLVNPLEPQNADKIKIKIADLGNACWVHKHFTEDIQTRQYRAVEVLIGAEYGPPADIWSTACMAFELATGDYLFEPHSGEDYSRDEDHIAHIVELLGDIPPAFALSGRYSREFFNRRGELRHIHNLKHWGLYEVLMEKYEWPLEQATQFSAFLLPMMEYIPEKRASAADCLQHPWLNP

Row | SMILES | inhibition [1] [%] | inhibition [2] [%] | inhibition [3] [%] | inhibition [4] [%] | inhibition [5] [%] | inhibition [6] [%] | inhibition [7] [%] | inhibition [8] [%]
1 | C[C@]1(O)C[C@@H](c2nc(-c3ccc4ccc(-c5ccccc5)nc4c3)c3c(N)nccn32)C1 | -2.07 | 0.11 | -6.1 | – | – | – | – | –
2 | C[C@@]1(C(=O)Nc2ccc(F)nc2)CCCN1c1nc(Nc2cc(C3CC3)n[nH]2)c2cccn2n1 | – | – | – | -1.93 | 2.48 | -8.78 | -2.16 | 5.36
